Laboratory results: the supplement of paper PMC11061612

Columns and labels:
[1] = tested on: MHH-CALL-2 (B-Lymphoblastic Leukemia); test: combination Emax (second highest fraction inhibited in the dose matrix, 72 h); higher = more inhibition; extreme values may be limits of the assay
Summary of the method: (§1)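 Cell lines grown in DMEM/F12 or RPMI with 10% FBS were plated in 1536-well plates and held 24 hours at 37°C, 5% CO2 before 72 hours of exposure to two-drug dose matrices, with DMSO typically at 0.2%. CellTiter-Glo 2.0 luminescence gave viability, which was converted to inhibition. Vehicle wells were set to 0 and blank wells to 1. Combination Emax is the second-highest inhibition in the matrix, and Bliss excess is the observed combination effect minus the expected EA + EB − EA·EB, where EA and EB are the single-agent effects.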

[2] = tested on: KMRC-20 (Kidney Carcinoma); test: as above
Summary of the method: as §1

[3] = tested on: OVCAR-5 (Ovarian Carcinoma); test: as above
Summary of the method: as §1

[4] = tested on: ALL-PO (B-Lymphoblastic Leukemia); test: as above
Summary of the method: as §1

[5] = tested on: LOXIMVI (Melanoma); test: as above
Summary of the method: as §1

[6] = tested on: L-428 (Hodgkin's Lymphoma); test: as above
Summary of the method: as §1

[7] = tested on: HuH-7 (Hepatocellular Carcinoma); test: as above
Summary of the method: as §1

[8] = tested on: BE-13 (T-Lymphoblastic Leukemia); test: as above
Summary of the method: as §1

[9] = tested on: NCI-H209 (Small Cell Lung Carcinoma); test: as above
Summary of the method: as §1

[10] = tested on: NUGC-4 (Gastric Carcinoma); test: as above
Summary of the method: as §1

[11] = tested on: A673 (Ewing's Sarcoma); test: as above
Summary of the method: as §1

[12] = tested on: LS-123 (Colorectal Carcinoma); test: as above
Summary of the method: as §1

[13] = tested on: HuCCT1 (Biliary Tract Carcinoma); test: as above
Summary of the method: as §1

[14] = tested on: KYAE-1 (Esophageal Adenocarcinoma); test: as above
Summary of the method: as §1

[15] = tested on: NCI-H1568 (Lung Adenocarcinoma); test: as above
Summary of the method: as §1

[16] = tested on: OE21 (Esophageal Squamous Cell Carcinoma); test: Bliss excess, mean over the matrix (fraction); higher = more synergy
Summary of the method: as §1

[17] = tested on: SAS (Oral Cavity Carcinoma); test: as above
Summary of the method: as §1

[18] = tested on: NCI-H524 (Small Cell Lung Carcinoma); test: as above
Summary of the method: as §1

[19] = tested on: HuCCT1 (Biliary Tract Carcinoma); test: as above
Summary of the method: as §1

[20] = tested on: BFTC-909 (Kidney Carcinoma); test: as above
Summary of the method: as §1
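For Bliss excess, mean over the matrix in this document: after 72 h of two-drug dosing.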

| SMILES | combination Emax [1] | combination Emax [2] | combination Emax [3] | combination Emax [4] | combination Emax [5] | combination Emax [6] | combination Emax [7] | combination Emax [8] | combination Emax [9] | combination Emax [10] | combination Emax [11] | combination Emax [12] | combination Emax [13] | combination Emax [14] | combination Emax [15] | Bliss excess [16] | Bliss excess [17] | Bliss excess [18] | Bliss excess [19] | Bliss excess [20] |
| --- | --- | --- | --- | --- | --- | --- | --- | --- | --- | --- | --- | --- | --- | --- | --- | --- | --- | --- | --- | --- |
| COc1nnc2ccc(N3CCC(c4ccc(OCCN5CCN(C)C(=O)[C@H]5C)cc4)CC3)nn12 [AZD5153] + CC1(C)CCC(CN2CCN(c3ccc(C(=O)NS(=O)(=O)c4ccc(NCC5CCOCC5)c([N+](=O)[O-])c4)c(Oc4cnc5[nH]ccc5c4)c3)CC2)=C(c2ccc(Cl)cc2)C1 [Venetoclax] (first compound max 1 µM, 7x7, partner max 1 µM) | 0.429 | 0.452 | 0.514 | 0.889 | 0.882 | 0.8 | 0.442 | 0.708 | 0.727 | 0.567 | 0.505 | 0.43 | 0.511 | 0.0501 | 0.251 | -0.0352 | -0.0325 | -0.037 | -0.0517 | -0.105 |
| Cc1c2c(nn1C)CSCc1cc(n(C)n1)CSc1cc(c3ccccc3c1)OCCCc1c(C(=O)O)n(C)c3c-2c(Cl)ccc13 [AZD5991] + C=CCn1c(=O)c2cnc(Nc3ccc(N4CCN(C)CC4)cc3)nc2n1-c1cccc(C(C)(C)O)n1 [AZD1775] (first compound max 1 µM, partner max 1 µM) | 1 | 0.638 | 0.343 | 1 | 0.624 | 0.82 | 0.448 | 1 | 0.95 | 0.47 | 0.614 | 0.66 | 0.759 | 0.668 | 0.434 | -0.0135 | -0.0144 | -0.0274 | 0.0676 | 0.0639 |
| COc1nnc2ccc(N3CCC(c4ccc(OCCN5CCN(C)C(=O)[C@H]5C)cc4)CC3)nn12 [AZD5153] + C[C@@H]1COCCN1C2=NC(=NC(=C2)C3(CC3)[S@](=N)(=O)C)C4=C5C=CNC5=NC=C4 [AZD6738] (first compound max 1 µM, 7x7, partner max 10 µM) | 0.932 | 0.775 | 0.744 | 0.987 | 0.97 | 0.929 | 0.724 | 0.985 | 0.908 | 0.652 | 0.84 | 0.59 | 0.666 | 0.263 | 0.476 | -0.0266 | -0.0483 | 0.0142 | -0.046 | -0.0072 |
| NC1(C(=O)N[C@@H](CCO)c2ccc(Cl)cc2)CCN(c2ncnc3[nH]ccc23)CC1 [Capivasertib] + C[C@@H]1COCCN1C2=NC(=NC(=C2)C3(CC3)[S@](=N)(=O)C)C4=C5C=CNC5=NC=C4 [AZD6738] (first compound max 10 µM, 7x7, partner max 10 µM) | 0.954 | 0.647 | 0.742 | 0.99 | 0.779 | 0.77 | 0.453 | 0.731 | 0.9 | 0.469 | 0.804 | 0.457 | 0.688 | 0.165 | 0.664 | -0.0499 | -0.0308 | -0.0086 | -0.0335 | -0.0878 |
| NC1(C(=O)N[C@@H](CCO)c2ccc(Cl)cc2)CCN(c2ncnc3[nH]ccc23)CC1 [Capivasertib] + CC(C)n1c(=O)n(C)c2cnc3cc(F)c(-c4ccc(OCCCN5CCCCC5)nc4)cc3c21 [AZD1390] (first compound max 10 µM, 7x7, partner max 0.3 µM) | 0.231 | 0.336 | 0.32 | 0.521 | 0.401 | 0.162 | 0.156 | 0.296 | 0.17 | 0.145 | 0.292 | 0.325 | 0.24 | 0.109 | 0.163 | -0.0474 | -0.036 | -0.0033 | -0.0447 | -0.013 |
